Reference: patent publication US20020054927A1, “Process for the extraction of an active principle from leaves of Olea Europaea to promote the synthesis of stress proteins, obtained active principle” (priority 2000, published 2002)

Tested on: HSP 70
Test: Production of stress protein HSP 70 (RNAm by RT-PCR, band intensity vs β-actine) in cutaneous cell cultures
Format: cell-based, human
Details: tested at 1.5 g/l
Description: 1st test with thermal treatment:
At J0, cutaneous cells, fibroblasts and/or keratinocytes are seeded.
At J4, 3% of active principle was added and after an incubation of 30 minutes thermal treatment is carried out for 1 hour at 39° C.
The positive specimen is treated for 1 hour at 44° C.
The total RNA is extracted. The RNA is reverse-transcripted and the complementary DNA is analyzed by using complementary oligonucleotides of a sequence coding the genes and proteins studied.
The RNAm of β-actine is analyzed for each experimental condition.
By image analysis, using for example the system sold under the name BIO-PROFIL, the band intensities are determined.
2nd test without thermal treatment:
At J3, 3% of active principle is added and left to incubate for 24 hours at 37° C.
At J4, at the end of this incubation, the cells are recovered.
The total RNA is extracted. The RNA is reverse-transcripted and the complementary DNA is analyzed by using complementary oligonucleotides of a sequence coding the genes and proteins used. The RNAm of p-actine is analyzed for each experimental condition.
Similarly to the above, by image analysis, the intensities of the bands are determined. […]
The results of the thermal treatments of the standard are indicated in the table in FIG. 1, taking as 100% the quantity of RNAm of HSP 70 after incubation at 37° C. of a standard specimen

With `OCCc1ccc(O)c(O)c1` [Dihydroxytyrosol] the “effect on the synthesis of HSP 70 on fibroblasts, result in words” value was “very active”.

For `C/C=C1/[C@H](O[C@@H]2O[C@H](CO)[C@@H](O)[C@H](O)[C@H]2O)OC=C(C(=O)OC)[C@H]1CC(=O)OCCc1ccc(O)c(O)c1` [Oleuropeine], the “effect on the synthesis of HSP 70 on fibroblasts, result in words” value was “very active”.
